According to patent US20260365990A1, “METHOD FOR THE PRESERVATION OF FUNCTIONAL GAMETES” (Julius-Maximilians-Universität Würzburg, in Vertretung des …, priority 2022, published 2026):
“Also recorded” adds a separate entry of the source.

Assays:
[1] = test system: spermatozoa; test: Static oxidation-reduction potential (sORP) of human sperm samples by MiOXSYS; type: cell-based; settings: for Change in oxidation-reduction potential (sORP, ratio treated/untreated): mean±SD; for Oxidation-reduction potential, samples 42_1 and 38_7 (in words): samples with drastically elevated untreated values, FIGS. 7D and 8D
Protocol: (§1) Between 1.46 mL and 5.7 mL human semen/spermatozoa were collected from healthy males of between 25 and 50 years of age in 100 mL sample vials on site. Samples were then divided into two equal fractions each for subsequent incubation with CO (wCO) and without CO (woCO). In order to estimate the spermatozoa concentration in the samples and to establish an initial baseline for each sample, a routine spermiogram was performed before samples were transferred to gas-tight 15 mL Falcon tubes. Samples were incubated at 25-35 °C for 90 minutes with and without an activated CORS system in a closed container. During this incubation period liquefaction took place naturally. The samples were then analyzed for total motility, progressive motility, static oxidation-reduction potential, and for DNA fragmentation. Total motility, progressive motility and concentration of the samples were assessed using a CEROS II (Hamilton Thorne, Beverly, MA) computer assisted sperm analysis (CASA) system. 6 μL of a sperm sample diluted 1:1 with Multipurpose Handling Medium-Complete (MHM-C, FujiFilm/IrvineScientific, Santa Ana, CA) was measured and the concentration and level of mobility (total and progressive motility) was assessed.
A Male Infertility Oxidative System (MiOXSYS, Englewood, CO) was used to determine static oxidation-reduction potential (sORP) levels. 30 μL of the sperm samples were transferred to the sample application port on a MiOXSYS sensor and analyzed for 2 minutes.
(§2) In this example, sperm samples were treated with either one, three, or six CORS capsules, each loaded with 5 mg Mo-CORM (corresponds to 0.44 mL CO) for 60 to 270 mins, or left untreated for the same amount of time.
(§3) Human sperm was collected from healthy volunteers in 100 ml specimen containers. Afterwards, the ejaculate was split into equal parts and filled into 15 mL gas tight falcon tubes, with one of the samples being exposed to one or more activated CORS. Then, both samples were analyzed for motility parameters via computer assisted sperm analysis (CASA), the static oxidation-reduction potential (sORP) via MiOXSYS and sperm DNA-fragmentation (SDF) via dispersion test with Halosperm G2 Kit after a predetermined time.
An oxidative male infertility measuring System (MiOXSYS, Englewood, CO) was used to determine static oxidation-reduction potential (SORP) levels following manufacturer's specifications. 30 μL of sample were transferred to the sample application port onto a MiOXSYS sensor and analyzed for 2 minutes. The results were expressed in milli Volt (mV) and normalized to the seminal sperm concentration (mV/106 sperm/mL).

[2] = test system: spermatozoa; test: Computer assisted sperm analysis (CASA, CEROS II) of human spermatozoa treated with CO vs. without CO: total motility, progressive motility, average path velocity (VAP); type: cell-based; settings: for Change in progressive motility (ratio treated/untreated) / Change of VAP (ratio treated/untreated) / Change in motility (ratio treated/untreated) / Change in velocity of the sperm cells (VAP, ratio treated/untreated): mean±SD
Protocol: as §1, §2, §3
Total motility, progressive motility, VAP, and concentration of the samples were tested using a CEROS II (Hamilton Thorne, Beverly, MA) computer assisted sperm analysis (CASA) system. 6 μL of a sperm sample diluted 1:1 with Multipurpose Handling Medium-Complete (MHM-C, Fuji Film/Irvine Scientific, Santa Ana, CA) was investigated with the CASA system, and the level of mobility was assessed.

[3] = test system: spermatozoa; test: Sperm DNA fragmentation (SDF) by dispersion test, Halosperm G2 Kit; type: cell-based, human; settings: for DNA-fragmentation change (SDF, ratio treated/untreated): mean±SD
Protocol: as §1
To determine DNA fragmentation a count-based microscopy assay was performed. For this spermatozoa samples were diluted using MHM-C (Multipurpose Handling Medium-Complete, FujiFilm, IrvineScientific) to a maximum of 20×E6 spermatozoa per mL and analyzed using a Halo Sperm G2 Kit (Halotech, Madrid, Spain). Samples were mixed with the prepared agarose according to manufacturer instructions. 8 μL of the resulting mixture was then put on microscopy slides and cooled down for 5 minutes by removing the heat source. The prepared samples were further treated according to the manufacturer's instructions: denaturant for 7 minutes, lysis solution for 20 minutes, distilled water for 5 minutes, 70% ethanol for 2 minutes, 100% ethanol for 2 minutes, eosin staining solution for 7-10 minutes, and thiazine staining solution for 7-10 minutes. At least 300 spermatozoa were then analyzed using a bright field microscope.
as §2, §3
Sperm DNA fragmentation (SDF) was assessed via dispersion test using a Halosperm G2 Kit (From Halotech, Madrid, Spain) following manufacturer's specifications. In brief, the samples were diluted to a maximum of 20 mio/mL. The samples were, then, mixed with the prepared agarose. 8 μL of the mixture was transferred on slides and cooled down for 5 minutes. Different reagents were added and discarded after the set time: Denaturant agent was added for 7 minutes, lysis solution for 20 minutes, distilled water for 5 minutes, 70% ethanol for 2 minutes, 100% ethanol for 2 minutes, eosin staining solution for 7-10 minutes, and thiazine staining solution for 7-10 minutes. A minimum of 400 sperms were analyzed using an Olympus IX73 Inverted LED Fluorescence Microscope.

[4] = 0.44 mL CO (5 mg Mo-CORM), 90 min
[5] = 1.32 mL CO (15 mg Mo-CORM), 60 min
[6] = 1.32 mL CO (15 mg Mo-CORM), 90 min
[7] = 1.32 mL CO (15 mg Mo-CORM), 180 min
[8] = 1.32 mL CO (15 mg Mo-CORM), 270 min
[9] = 2.64 mL CO (30 mg Mo-CORM), 90 min
[10] = Example 3, 60 min and 90 min, 0.44 mL and 1.32 mL CO
[11] = Example 3, up to 90 min, 0.44-2.64 mL CO

## [C-]#[O+] [CO, carbon monoxide]
[1]; [4]
  Change in oxidation-reduction potential (sORP, ratio treated/untreated): 0.89±0.17 fold
[1]; [5]
  Change in oxidation-reduction potential (sORP, ratio treated/untreated): 0.57±0.35 fold
[1]; [6]
  Change in oxidation-reduction potential (sORP, ratio treated/untreated): 0.91±0.12 fold
[1]; [7]
  Change in oxidation-reduction potential (sORP, ratio treated/untreated): 1.02±0.32 fold
[1]; [8]
  Change in oxidation-reduction potential (sORP, ratio treated/untreated): 1.13±0.28 fold
[1]; [9]
  Change in oxidation-reduction potential (sORP, ratio treated/untreated): 0.59±0.24 fold
[1]; 60 min and 90 min, 15 mg CORM, FIG. 9
  Correlation of CO effect on sORP with untreated sORP (in words): particularly effective in subjects that suffer from high sperm oxidation-reduction potential
[1]; Example 2, 15 mg Mo-CORM, 90 min, 25-35 °C, 6 subjects, FIG. 2
  Relative oxidation-reduction potential wCO/woCO (in words): show a trend to be lower in the samples that were contacted with CO; also recorded: a reduction in oxidative stress/ROS
[1]; [10]
  Oxidation-reduction potential vs untreated (in words): reduced
[1]
  Oxidation-reduction potential, samples 42_1 and 38_7 (in words): strong reduction
[1]; listed as carbon monoxide
  Oxidation-reduction potential, samples 42_1 and 38_7 (in words): reduced oxidation-reduction potential
[2]; [4]
  Change in progressive motility (ratio treated/untreated): 0.97±0.12 fold
  Change of VAP (ratio treated/untreated): 1.01±0.08 fold
[2]; 0.44 mL CO (5 mg Mo-CORM, one CORS), 90 min
  Change in motility (ratio treated/untreated): 0.98±0.12 fold
[2]; [5]
  Change in progressive motility (ratio treated/untreated): 0.85±0.13 fold
  Change in velocity of the sperm cells (VAP, ratio treated/untreated): 0.94±0.09 fold
[2]; [6]
  Change in motility (ratio treated/untreated): 0.99±0.03 fold
  Change in progressive motility (ratio treated/untreated): 0.92±0.17 fold
  Change in velocity of the sperm cells (VAP, ratio treated/untreated): 0.96±0.04 fold
[2]; [7]
  Change in motility (ratio treated/untreated): 1.16±0.37 fold
  Change in progressive motility (ratio treated/untreated): 0.72±0.19 fold
  Change in velocity of the sperm cells (VAP, ratio treated/untreated): 0.79±0.13 fold
[2]; [8]
  Change in motility (ratio treated/untreated): 0.94±0.20 fold
  Change in progressive motility (ratio treated/untreated): 1.04±0.48 fold
  Change in velocity of the sperm cells (VAP, ratio treated/untreated): 0.97±0.08 fold
[2]; 1.32 mL CO (15 mg Mo-CORM, three CORS), 60 min
  Change in motility (ratio treated/untreated): 1.13±0.41 fold
[2]; [9]
  Change in progressive motility (ratio treated/untreated): 0.88±0.10 fold
  Change of VAP (ratio treated/untreated): 1.03±0.03 fold
[2]; 2.64 mL CO (30 mg Mo-CORM, six CORS), 90 min
  Change in motility (ratio treated/untreated): 0.90±0.12 fold
[2]; Example 2, 15 mg Mo-CORM, 90 min, 25-35 °C, 5 subjects, FIG. 4A
  Relative total motility wCO/woCO (in words): no differences between samples that were contacted with CO (wCO) and without CO (woCO)
[2]; Example 2, 15 mg Mo-CORM, 90 min, 25-35 °C, 5 subjects, FIG. 4B, exception subject 6
  Relative progressive motility wCO/woCO (in words): progressive motility is increased for wCO as compared to woCO; also recorded: an improvement of progressive motility
[2]; Example 3, 60 min or 90 min, 0.44 mL or 1.32 mL CO
  Effect on spermatozoan motility (in words): no negative effects on spermatozoan motility
[2]; [11]
  Effect on progressive motility vs untreated (in words): did not impair sperm motility, progressive motility
  Effect on sperm motility vs untreated (in words): did not impair sperm motility
  Effect on velocity vs untreated (in words): did not impair sperm motility, progressive motility, and velocity
[3]; [4]
  DNA-fragmentation change (SDF, ratio treated/untreated): 0.83±0.09 fold
[3]; [5]
  DNA-fragmentation change (SDF, ratio treated/untreated): 0.77±0.07 fold
[3]; [6]
  DNA-fragmentation change (SDF, ratio treated/untreated): 0.67±0.24 fold
[3]; [7]
  DNA-fragmentation change (SDF, ratio treated/untreated): 0.90±0.11 fold
[3]; [8]
  DNA-fragmentation change (SDF, ratio treated/untreated): 0.90±0.19 fold
[3]; [9]
  DNA-fragmentation change (SDF, ratio treated/untreated): 1.31±0.55 fold
[3]; 60 min and 90 min, 15 mg CORM, FIG. 10
  Correlation of CO effect on SDF with untreated SDF (in words): particularly effective in subjects that suffer from high sperm oxidation-reduction potential and/or DNA-fragmentation
[3]; Example 2, 15 mg Mo-CORM, 90 min, 25-35 °C, 3 subjects, FIG. 3
  Relative DNA fragmentation wCO/woCO (in words): DNA fragmentation is reduced in samples that were contacted with CO; also recorded: a reduction in DNA fragmentation
[3]; Example 2, FIG. 3, treated vs untreated aliquots of same donor
  DNA fragmentation, subjects 3 and 4 (in words): less DNA fragmentation
[3]; [10]
  Spermatozoan DNA-fragmentation (SDF) vs untreated (in words): reduced
[3]; samples with drastically elevated untreated values, FIGS. 7E and 8E
  DNA fragmentation, samples 42_1 and 38_7 (in words): strong reduction
